Experimental data published in patent US12083084B2, “Method for enhancing energy production and metabolism in cells” (REPLICON HEALTH OY, priority 2013, dated 2024).

Columns and labels:
[1] = Extended 8 week administration and 2 week control period for S4 (Example 2.2); format: in vivo, human; conditions: for AST/ALT / S-Bil / S-Uraat / fS-Fe / fS-Trigly: fasting blood
Protocol: For Subject 4 (S4) in Example 2.1, the 4 day test period was prolonged by 8 weeks with reduced, only once a day 5 mg/kg/day administration before going to bed. Additionally in order to have an understanding that the results in the 8 week test were due to the administration of the Innovation, an additional negative control measurement without DGAcs after 2 weeks and 2 days was made (+2 days due to alleviating doses see below). The idea was to see, if the beneficial effects seen in 4 day treatment prevailed in longer term (positive control).

[2] = 3 week ad libitum feeding study, food intake and body weight; format: in vivo, rat
Protocol: In this in vivo experiment 45 rats (24 males and 21 females) were tested in Finnish National Institute of Health. Used DGAcs doses were high compared to human trials ranging between 100-1000 mg/kg/day, but on the other hand the metabolism of rats is much faster than in humans and thus the effective doses for rats can be clearly higher than for humans. In some experiments even 20-50 times higher compared to humans in vivo have been reported in literature. Thus this experiment can give indication also for human use. The animals were kept under controlled conditions, with the temperature set from 20° C. to 21° C., the humidity at 47.6%, and a 12-hour light-dark cycle (lights on at 6:00 am). In this ad libitum feeding study the DGAcs was mixed in the diet for the whole experimental period (3 weeks). The animals were divided into 4 groups, which received 0 (zero control), 2, 10, and 20 g glycerate per kilogram of diet. The average DGAcs consumption was 0.1, 0.5, and 1.0 g/kg per day, respectively, as calculated based on weekly food consumption. The animals experimented were 3 to 5 months old AA rats. The animals were given water and a standard laboratory feed (SDS RM1) ad libitum for 3 weeks. In the experiment the development of weights of rats receiving DGAcs, and the control were measured, as well as the food consumption during the experiment and change in the body weight. Males and females were separated resulting altogether to 8 groups with 5-6 animals in each.

[3] = Blood pressure (hypertension) in study subjects; format: in vivo, human
Protocol: FIG. 12 depicts that hypertension was measured in two study subjects out of eight (subject 4 and 5). Subject 5 was the only person with clearly elevated blood pressure. (For other study subjects 1-3 and 6-8 blood pressures were at normal level.) Subject 5 blood pressure was first observed without any treatment for 6 days (from 20 of Jan. to 26 of Jan. 2013). After that subject 5 received twice a day 4 mg/kg of DGA mixed to water for 10 days. […] Subject 4 received 1×4 mg/k/day of DGA for 3 weeks.
FIG. 12a: Hypertension, subject 5 (averages of three measurements. DGA dosing started on 26th of January and ended on 3rd of February. Dose 2×4 mg/kg/day).
FIG. 12b: Hypertension, subject 4 (averages of three measurements. Subject 4 received 1×4 mg/kg/day of DGA for 3 weeks).

[4] = cited from earlier work
[5] = S4, +2 weeks follow up after stopping DGAcs (negative control), change from previous observation (+8 weeks)
[6] = S4, +2 weeks follow up after stopping DGAcs (negative control)
[7] = S4, +8 weeks 5 mg/kg once a day (positive control), change from previous observation (4 day)
[8] = S4, +8 weeks 5 mg/kg once a day (positive control)

In the case of `O.O.O=C([O-])[C@H](O)CO.O=C([O-])[C@H](O)CO.[Ca+2]` [DGAcs, D-glyceric acid, calcium salt dehydrate], the “S-Asat, change” value [1, 5] is reported as 24.1%, the “S-Bil, change” value [1, 5] is reported as 41.7% and the “S-Uraat, change” value [1, 5] is reported as 19.4%. For the same compound, the “S-alat, change” value [1, 5] was −35.1%, the “fS-Fe, change” value [1, 5] was −3.2% and the “fS-Trigly, change” value [1, 5] was −17.8%. It also gave an AST/ALT [1, 6] of 1.44, a S-Bil [1, 6] of 10.2 and a S-Uraat [1, 6] of 295. The fS-Fe [1, 6] was 15.1, the fS-Trigly [1, 6] was 1.11 and the “S-Asat, change” value [1, 7] was 31.8%. The “S-Bil, change” value [1, 7] was −25.8%, the “S-Uraat, change” value [1, 7] was 0.4% and the “S-alat, change” value [1, 7] was 85.0%. The “fS-Fe, change” value [1, 7] was −22.8%, the “fS-Trigly, change” value [1, 7] was −22.0% and the AST/ALT [1, 8] was 0.78. The S-Bil [1, 8] was 7.2, the S-Uraat [1, 8] was 247 and the fS-Fe [1, 8] was 15.6. For the same compound, the fS-Trigly [1, 8] was 1.35, the “time without dose until withdrawal symptoms started” value ([1]; S4, after 8 weeks of 5 mg/kg/day) was 36 h and the “withdrawal symptoms after stopping administration” value ([1]; S4, after 8 weeks of 5 mg/kg/day, bad feeling inside the head, dizziness, uneasiness) was “very clear but not severe”. The “increase in food intake” value ([2]; DGAcs groups, males and females) was 2.5-4%, the “average weight change compared to control” value ([2]; female rats, 3 weeks) was “+0.2%” and the “average weight increasing compared to control” value ([2]; female rats, 3 weeks) was 0.6 grams. For the same compound, the “food intake higher compared to the control” value ([2]; female rats, DGAcs groups combined, 3 weeks) was 2.5%, the “food intake higher compared to the control” value ([2]; male rats, DGAcs groups combined (0.1, 0.5, 1.0 g/kg per day), 3 weeks) was 3.7% and the “amount of unexplained energy consumption” value ([2]; males) was “roughly 5%”.
With `O=C(O)[C@H](O)CO` [DGA, D-glyceric acid] the blood pressure ([3]; subject 4, 1×4 mg/kg/day for 3 weeks) was “declined also somewhat”, the “diastolic blood pressure after treatment” value ([3]; subject 5, clearly elevated blood pressure (102 or 104 before), twice a day for 10 days) was roughly 90 and the “systolic blood pressure after treatment” value ([3]; subject 5, clearly elevated blood pressure (roughly 180 before), twice a day for 10 days) was roughly 160. For the same compound, the solubility [4] was “readily soluble in water and alcohol”.
